Experimental data published in US20250282828A1, “PEPTIDES FOR THE TREATMENT OF RESPIRATORY INFECTIONS OF VIRAL ORIGIN” (CENTRO DE INGENIERÍA GENÉTICA Y BIOTECNOLOGÍA, priority 2020, published 2025).
Like-named read-outs stand apart in the source and are kept apart here. Positions of bridges follow the written chain, without caps; N, C: chain ends. Non-standard residues stand in square brackets, D forms with d. Residues, ends and D or L forms follow the SMILES beside them. No end group written: not given here.

Key:
[1] = system: SARS-CoV-2
[2] = system: herpes simplex virus type 1 (HSV-1); assay: HSV-1 replication in primary explants of human nasal mucosa (qPCR); format: cell-based; details: 36 hours
Description: The replication of herpes simplex virus type 1 (HSV-1) was performed in primary explants of human nasal mucosa, according to Glorieux et al. (Glorieux et al. 2011, PLoS ONE, 6(7): e22160, doi: 10.1371/journal.pone.0022160). […] Afterwards, the cultures were washed and kept at 37° C. and 5% CO2 for 36 hours, in presence of the peptides in culture medium. The cultures were harvested, and HSV-1 was quantified by qPCR. The percentages of viral inhibition ranged from 70 to 92% in presence of the peptides (Table 5).

[3] = system: respiratory syncytial virus (RSV); assay: Respiratory syncytial virus replication in bronchial HAE (RT-qPCR); format: cell-based; details: 50 μM, 10 days
[4] = system: AdV 7 Gomen strain; assay: Adenovirus type 7 replication in bronchial HAE (qPCR); format: cell-based; details: 50 μM, 24 hours
[5] = system: Influenza A H1N1; format: cell-based; details: 50 μM; tracheo-bronchial HAE
[6] = system: human bocavirus (HBoV); assay: Human bocavirus replication in tracheal HAE (qPCR NS1 region); format: cell-based; details: 50 μM, 72 hours
[7] = system: SARS-CoV-2; remark: listed apart in the source
[8] = system: SARS-CoV-2; remark: listed apart in the source
[9] = system: Dengue 2 virus; assay: Dengue 2 virus replication in primary cultures of lung cells (PFU in VeroE6); format: cell-based; details: 48 hours
Description: The cultures were treated with the peptides for 2 or 24 hours, at concentrations of 0.01 to 100 μM before viral challenge. The medium was discarded and the cells were infected with Dengue 2 virus, at an MOI of 10 for 2 hours at 37° C. and 5% CO2. The virus was eliminated, a wash was then performed and the cultures were treated again with peptides in DMEM medium, and incubated for 48 hours at 37° C. and 5% CO2. Subsequently, the cultures were collected to assess viral performance on VeroE6 cells. For this, the cells were seeded in 24-well plates and when they reached confluence they were infected with serial 10-fold dilutions of the supernatants, incubated for 1 hour at 37° C. and 5% CO2. Next, a wash was carried out with PBS, and a layer of agar in 2× DMEM (1:1) added. The layer was allowed to solidify and incubated for 48 hours at 37° C. 5% CO2. The plates were stained with crystal violet, for the determination of the number of PFUs. The peptides inhibited between 68 and 88% of viral replication (Table 5).

[10] = molecular target: Protein N (SARS-CoV-2) (Severe acute respiratory syndrome coronavirus 2, UniProt P0DTC9); assay: BIACORE surface plasmon resonance interaction with immobilized peptide; format: binding; details: analyte 10-200 nM
[11] = molecular target: T1, Dengue 2 virus capsid protein (Dengue virus type 2, UniProt P29990); assay: as above; format: binding
T1 construct: with the Dengue 2 virus capsid protein

[12] = molecular target: T2, ZIKV E protein (Zika) (Zika virus, UniProt A0A024B7W1); assay: as above; format: binding
T2 construct: the envelope protein of the Zika virus (ZIKV E)

[13] = system: capsid protein of the Influenza H1N1 virus; assay: as above; format: binding
[14] = molecular target: T3, NS1-D2 (Dengue) (Dengue virus type 2, UniProt P29990); assay: as above; format: binding, Dengue virus 2
T3 construct: the non-structural protein 1 of the Dengue virus 2 (NS1-D2)

[15] = system: Parainfluenza virus type 3 (HPIV3); format: cell-based; details: 50 μM; HAE, 3 days

T3 sequence (P29990 776-1127 limits assumed): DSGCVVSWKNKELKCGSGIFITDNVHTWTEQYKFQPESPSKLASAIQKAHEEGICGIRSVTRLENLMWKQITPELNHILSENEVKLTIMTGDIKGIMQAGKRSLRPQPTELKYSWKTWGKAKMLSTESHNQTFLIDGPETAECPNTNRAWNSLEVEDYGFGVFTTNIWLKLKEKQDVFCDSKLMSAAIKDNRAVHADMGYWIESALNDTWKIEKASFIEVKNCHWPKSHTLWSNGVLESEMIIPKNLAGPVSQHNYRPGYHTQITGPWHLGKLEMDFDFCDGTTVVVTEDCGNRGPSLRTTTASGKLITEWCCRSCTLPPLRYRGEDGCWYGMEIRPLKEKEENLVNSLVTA
T1 sequence (P29990 1-100 limits assumed): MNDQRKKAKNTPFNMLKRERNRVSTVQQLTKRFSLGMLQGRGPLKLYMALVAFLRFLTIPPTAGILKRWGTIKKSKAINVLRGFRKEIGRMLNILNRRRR
T2 sequence (A0A024B7W1 291-794): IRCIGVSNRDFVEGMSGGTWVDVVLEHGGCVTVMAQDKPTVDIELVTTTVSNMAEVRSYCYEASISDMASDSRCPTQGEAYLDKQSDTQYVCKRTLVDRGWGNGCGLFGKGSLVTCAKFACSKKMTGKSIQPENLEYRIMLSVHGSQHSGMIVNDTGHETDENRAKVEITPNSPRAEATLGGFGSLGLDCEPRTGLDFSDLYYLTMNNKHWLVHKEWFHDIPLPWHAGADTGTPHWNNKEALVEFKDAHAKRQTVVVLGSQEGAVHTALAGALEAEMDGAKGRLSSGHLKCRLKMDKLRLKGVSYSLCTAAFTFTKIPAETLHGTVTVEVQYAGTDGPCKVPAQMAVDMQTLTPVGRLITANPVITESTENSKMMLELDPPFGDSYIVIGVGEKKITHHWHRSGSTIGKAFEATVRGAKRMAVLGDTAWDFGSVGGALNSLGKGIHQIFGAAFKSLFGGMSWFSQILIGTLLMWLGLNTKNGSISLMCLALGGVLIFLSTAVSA

## CSCC[C@@H]1NC(=O)[C@H](Cc2c[nH]c3ccccc23)NC(=O)[C@@H](NC(=O)[C@H](C)NC(=O)[C@H](CCC(N)=O)NC(=O)[C@@H]2CCCN2C(=O)[C@@H]2CCCN2C(=O)[C@H](CCCNC(=N)N)NC(=O)[C@H](CCCNC(=N)N)NC(=O)[C@H](CCCNC(=N)N)NC(=O)[C@H](CCC(N)=O)NC(=O)[C@H](CCCNC(=N)N)NC(=O)[C@H](CCCNC(=N)N)NC(=O)[C@H](CCCCN)NC(=O)[C@H](CCCCN)NC(=O)[C@H](CCCNC(=N)N)NC(=O)CN)CSSC[C@@H](C(=O)O)NC(=O)[C@H]([C@@H](C)O)NC(=O)CNC(=O)[C@H](CC(C)C)NC(=O)[C@H](Cc2c[nH]cn2)NC(=O)[C@H](CCCNC(=N)N)NC(=O)[C@@H]2CCCN2C(=O)[C@H](CO)NC1=O [Peptide SEQ ID NO: 23] (H-GRKKRRQRRRPPQACWMSPRHLGTC-OH; disulfide 15-25; N-terminus and C-terminus assumed)
[1]
  IC50: 3.8 µM

## CSCC[C@H](NC(=O)[C@H](CCC(N)=O)NC(=O)[C@@H](NC(=O)[C@@H](NC(=O)[C@H](CCCNC(=N)N)NC(C)=O)C(C)C)[C@@H](C)O)C(=O)N[C@H](CC(N)=O)C(=O)N[C@@H](CC(C)C)C(=O)N[C@@H](CC(N)=O)C(=O)N[C@@H](CC(=O)O)C(=O)N[C@@H](CCCNC(=N)N)C(=O)N[C@@H](CC(C)C)C(=O)N[C@@H](C)C(=O)N[C@@H](CO)C(=O)N[C@@H](CC(C)C)C(=O)N[C@@H](Cc1ccc(O)cc1)C(=O)N[C@@H](CC(=O)O)C(=O)N[C@@H](CCCCN)C(=O)N[C@H](C(=O)O)C(C)C [SEQ ID NO: 3] (Ac-RVTQM[dN]LNDRLASLYDKV-OH; C-terminus assumed)
[2]; 50 μM
  Herpes simplex HSV-1 Inhib. %: 73%
[3]
  Sincitial respiratory virus Inhib. %: 87%
[4]
  Adenovirus Ad7 Inhib. %: 82%
[5]
  Influenza A H1N1 Inhib. %: 93%
[6]
  Bocavirus HBoV-1 Inhib. %: 80%
[7]; 96 h, 100 μM
  Inhibition %: 85.4%

## CSCC[C@H](NC(=O)[C@H](CCC(N)=O)NC(=O)[C@@H](NC(=O)[C@@H](NC(=O)[C@H](CCCNC(=N)N)NC(C)=O)C(C)C)[C@@H](C)O)C(=O)N[C@@H](CC(N)=O)C(=O)N[C@@H](CC(C)C)C(=O)N[C@H](CC(N)=O)C(=O)N[C@@H](CC(=O)O)C(=O)N[C@@H](CCCNC(=N)N)C(=O)N[C@@H](CC(C)C)C(=O)N[C@@H](C)C(=O)N[C@@H](CO)C(=O)N[C@@H](CC(C)C)C(=O)N[C@@H](Cc1ccc(O)cc1)C(=O)N[C@@H](CC(=O)O)C(=O)N[C@@H](CCCCN)C(=O)N[C@H](C(=O)O)C(C)C [SEQ ID NO: 4] (Ac-RVTQMNL[dN]DRLASLYDKV-OH; C-terminus assumed)
[8]; 72 h, 100 μM
  Bronchial HAE Inhibition %: 85%
  Nasal HAE Inhibition %: 80%
[7]; 96 h, 100 μM
  Inhibition %: 92.4%

## CSCC[C@H](NC(=O)[C@H](CCC(N)=O)NC(=O)[C@@H](NC(=O)[C@@H](NC(=O)[C@H](CCCNC(=N)N)NC(C)=O)C(C)C)[C@@H](C)O)C(=O)N[C@@H](CC(N)=O)C(=O)N[C@@H](CC(C)C)C(=O)N[C@@H](CC(N)=O)C(=O)N[C@H](CC(=O)O)C(=O)N[C@@H](CCCNC(=N)N)C(=O)N[C@@H](CC(C)C)C(=O)N[C@@H](C)C(=O)N[C@@H](CO)C(=O)N[C@@H](CC(C)C)C(=O)N[C@@H](Cc1ccc(O)cc1)C(=O)N[C@@H](CC(=O)O)C(=O)N[C@@H](CCCCN)C(=O)N[C@H](C(=O)O)C(C)C [SEQ ID NO: 5] (Ac-RVTQMNLN[dD]RLASLYDKV-OH; C-terminus assumed)
[7]; 96 h, 100 μM
  Inhibition %: 85.3%

## Ac-RVTQMNLNDRLASLYDKV [SEQ ID NO: 2]
[8]; 72 h, 50 μM
  Bronchial HAE Inhibition %: 90%
  Nasal HAE Inhibition %: 80%
[9]; 50 μM
  Dengue 2 Inhib. %: 88%
[3]
  Sincitial respiratory virus Inhib. %: 83%
[10]
  Kd: 523 nM
[5]
  Influenza A H1N1 Inhib. %: 90%
[11]
  Kd: 754 nM
[12]
  Kd: 18.2 µM
  interaction: showed interaction
[13]
  Kd: 24.3 nM
  interaction: showed interaction
[14]
  interaction: showed interaction
[15]
  Parainfluenza Type 3 Inhib. %: 89%
[7]; 96 h, 50 μM
  Inhibition %: 95.1%

## NDRLASLYDKV [SEQ ID NO: 14]
[9]; 50 μM
  Dengue 2 Inhib. %: 70%
[3]
  Sincitial respiratory virus Inhib. %: 82%
[10]
  Kd: 1140 nM
[5]
  Influenza A H1N1 Inhib. %: 79%
[11]
  Kd: 5910 nM
[12]
  Kd: 3.2 µM
  interaction: showed interaction
[13]
  Kd: 4670 nM
  interaction: showed interaction
[14]
  interaction: showed interaction
[7]; 96 h, 50 μM
  Inhibition %: 83.2%

## NLNDRLASLYDKV [SEQ ID NO: 15]
[8]; 72 h, 50 μM
  Bronchial HAE Inhibition %: 90%
  Nasal HAE Inhibition %: 86%
[2]; 50 μM
  Herpes simplex HSV-1 Inhib. %: 81%
[4]
  Adenovirus Ad7 Inhib. %: 78%
[10]
  Kd: 7820 nM
[11]
  Kd: 1270 nM
[12]
  Kd: 0.0624 µM
  interaction: showed interaction
[13]
  Kd: 189 nM
  interaction: showed interaction
[14]
  interaction: showed interaction
[15]
  Parainfluenza Type 3 Inhib. %: 69%
[7]; 96 h, 50 μM
  Inhibition %: 87.1%

## RATQMNLNDRLASLYDKV [SEQ ID NO: 6]
[7]; 96 h, 100 μM
  Inhibition %: 82.2%

## RVTAMNLNDRLASLYDKV [SEQ ID NO: 7]
[9]; 100 μM
  Dengue 2 Inhib. %: 87%
[4]
  Adenovirus Ad7 Inhib. %: 69%
[5]
  Influenza A H1N1 Inhib. %: 70%
[7]; 96 h, 100 μM
  Inhibition %: 92.4%

## RVTQANLNDRLASLYDKV [SEQ ID NO: 8]
[8]; 72 h, 100 μM
  Bronchial HAE Inhibition %: 92%
  Nasal HAE Inhibition %: 88%
[9]; 50 μM
  Dengue 2 Inhib. %: 72%
[6]
  Bocavirus HBoV-1 Inhib. %: 87%
[15]
  Parainfluenza Type 3 Inhib. %: 73%
[7]; 96 h, 100 μM
  Inhibition %: 90.2%

## RVTQMNANDRLASLYDKV [SEQ ID NO: 9]
[4]
  Adenovirus Ad7 Inhib. %: 79%
[5]
  Influenza A H1N1 Inhib. %: 89%
[6]
  Bocavirus HBoV-1 Inhib. %: 75%
[7]; 96 h, 100 μM
  Inhibition %: 83.7%

## RVTQMNLADRLASLYDKV [SEQ ID NO: 16]
[7]; 96 h, 100 μM
  Inhibition %: 79.6%

## RVTQMNLNARLASLYDKV [SEQ ID NO: 10]
[7]; 96 h, 100 μM
  Inhibition %: 70.8%

## RVTQMNLNDALASLYDKV [SEQ ID NO: 17]
[7]; 96 h, 100 μM
  Inhibition %: 72.7%

## RVTQMNLNDRAASLYDKV [SEQ ID NO: 21]
[8]
  inhibition of SARS-CoV-2 in primary cultures of human airway epithelium: ≤ 20%
[7]; 96 h, 100 μM
  Inhibition %: 25.5%

## RVTQMNLNDRLAALYDKV [SEQ ID NO: 18]
[7]; 96 h, 100 μM
  Inhibition %: 69.2%

## RVTQMNLNDRLASLYAKV [SEQ ID NO: 12]
[7]; 96 h, 100 μM
  Inhibition %: 77.4%

## RVTQMNLNDRLASLYDAV [SEQ ID NO: 13]
[8]; 72 h, 50 μM
  Bronchial HAE Inhibition %: 89%
  Nasal HAE Inhibition %: 79%
[2]; 50 μM
  Herpes simplex HSV-1 Inhib. %: 78%
[3]
  Sincitial respiratory virus Inhib. %: 91%
[4]
  Adenovirus Ad7 Inhib. %: 76%
[15]
  Parainfluenza Type 3 Inhib. %: 90%
[7]; 96 h, 100 μM
  Inhibition %: 90.5%

## RVTQMNLNDRLVSLYDKV [SEQ ID NO: 11]
[7]; 96 h, 100 μM
  Inhibition %: 73.9%

## SEQ ID NO: 19: synthetic peptide related to SEQ ID NO: 1, obtained by solid phase synthesis (RVTQMNLNDRLASLYDKV; Description of the Artificial Sequence synthetic peptide where N6 is a D amino acid)
[8]; 100 µM
  Bronchial HAE Inhibition %: 86%
  Nasal HAE Inhibition %: 82%
[9]; 50 μM
  Dengue 2 Inhib. %: 68%
[3]
  Sincitial respiratory virus Inhib. %: 75%
[5]
  Influenza A H1N1 Inhib. %: 67%
[6]
  Bocavirus HBoV-1 Inhib. %: 85%
[7]; 50 µM
  Inhibition %: 91.8%

## SEQ ID NO: 20: synthetic peptide related to SEQ ID NO: 1, obtained by solid phase synthesis (RVTQMNLNDRLASLYDKV; Description of the Artificial Sequence synthetic peptide where N8 is a D amino acid)
[2]; 100 μM
  Herpes simplex HSV-1 Inhib. %: 70%
[6]
  Bocavirus HBoV-1 Inhib. %: 67%
[15]
  Parainfluenza Type 3 Inhib. %: 79%
[7]; 50 µM
  Inhibition %: 69.8%
